{"source": "paper PMC11189555", "about": "“Aryl amino acetamides prevent Plasmodium falciparum ring development via targeting the lipid-transfer protein PfSTART1” (Nature Communications, 2024)", "tested_on": "PopD C6 M-833 resistant clone (PfSTART1 N309K)", "experiment": "Growth inhibition assay (72 h, LDH activity)", "type": "cell-based, Plasmodium falciparum", "summary_of_the_method": "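Synchronised ring-stage 3D7-derived clones (0.3-0.6% parasitemia, 2% haematocrit) grown 72 h in compound serial dilutions, some with 0, 0.25 or 2.5 mM glucosamine. Growth read as LDH activity after freeze-thaw (Malstat/NBT, A650), normalised to DMSO and uninfected RBC; EC50 from variable-slope log(inhibitor) fit.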", "data": [{"smiles": "Cc1cc(Cl)c(S(=O)(=O)N2CCCC2)cc1OCC(=O)NC1CCCCC1", "note": "[M-833]", "values": [{"measurement": "Normalised to DMSO", "setting": "M-833 0.0390625 uM, Pop D-C6 replicate 1", "result": 106.597}, {"measurement": "Normalised to DMSO", "setting": "M-833 0.0390625 uM, Pop D-C6 replicate 3", "result": 109.19}, {"measurement": "Normalised to DMSO", "setting": "M-833 0.078125 uM, Pop D-C6 replicate 1", "result": 104.398}, {"measurement": "Normalised to DMSO", "setting": "M-833 0.078125 uM, Pop D-C6 replicate 3", "result": 106.818}, {"measurement": "Normalised to DMSO", "setting": "M-833 0.15625 uM, Pop D-C6 replicate 1", "result": 106.528}, {"measurement": "Normalised to DMSO", "setting": "M-833 0.15625 uM, Pop D-C6 replicate 3", "result": 112.747}, {"measurement": "Normalised to DMSO", "setting": "M-833 0.3125 uM, Pop D-C6 replicate 1", "result": 101.389}, {"measurement": "Normalised to DMSO", "setting": "M-833 0.3125 uM, Pop D-C6 replicate 3", "result": 96.5909}, {"measurement": "Normalised to DMSO", "setting": "M-833 0.625 uM, Pop D-C6 replicate 1", "result": 99.6991}, {"measurement": "Normalised to DMSO", "setting": "M-833 0.625 uM, Pop D-C6 replicate 3", "result": 97.6285}, {"measurement": "Normalised to DMSO", "setting": "M-833 1.25 uM, Pop D-C6 replicate 1", "result": 88.1713}, {"measurement": "Normalised to DMSO", "setting": "M-833 1.25 uM, Pop D-C6 replicate 3", "result": 89.9209}, {"measurement": "Normalised to DMSO", "setting": "M-833 2.5 uM, Pop D-C6 replicate 1", "result": 68.7963}, {"measurement": "Normalised to DMSO", "setting": "M-833 2.5 uM, Pop D-C6 replicate 3", "result": 69.4664}, {"measurement": "Normalised to DMSO", "setting": "M-833 5 uM, Pop D-C6 replicate 1", "result": 41.5972}, {"measurement": "Normalised to DMSO", "setting": "M-833 5 uM, Pop D-C6 replicate 3", "result": 40.2668}, {"measurement": "Normalised to DMSO", "setting": "M-833 10 uM, Pop D-C6 replicate 1", "result": 22.7778}, {"measurement": "Normalised to DMSO", "setting": "M-833 10 uM, Pop D-C6 replicate 3", "result": 32.2628}, {"measurement": "inhibition at 0.0390625 µM", "setting": "Plasmodium falciparum, M-833 0.0390625 uM, Pop D-C6 replicate 1", "result": -6.6, "unit": "%"}, {"measurement": "inhibition at 0.0390625 µM", "setting": "Plasmodium falciparum, M-833 0.0390625 uM, Pop D-C6 replicate 3", "result": -9.19, "unit": "%"}, {"measurement": "inhibition at 0.078125 µM", "setting": "Plasmodium falciparum, M-833 0.078125 uM, Pop D-C6 replicate 1", "result": -4.4, "unit": "%"}, {"measurement": "inhibition at 0.078125 µM", "setting": "Plasmodium falciparum, M-833 0.078125 uM, Pop D-C6 replicate 3", "result": -6.82, "unit": "%"}, {"measurement": "inhibition at 0.15625 µM", "setting": "Plasmodium falciparum, M-833 0.15625 uM, Pop D-C6 replicate 1", "result": -6.53, "unit": "%"}, {"measurement": "inhibition at 0.15625 µM", "setting": "Plasmodium falciparum, M-833 0.15625 uM, Pop D-C6 replicate 3", "result": -12.7, "unit": "%"}, {"measurement": "inhibition at 0.3125 µM", "setting": "Plasmodium falciparum, M-833 0.3125 uM, Pop D-C6 replicate 1", "result": -1.39, "unit": "%"}, {"measurement": "inhibition at 0.3125 µM", "setting": "Plasmodium falciparum, M-833 0.3125 uM, Pop D-C6 replicate 3", "result": 3.41, "unit": "%"}, {"measurement": "inhibition at 0.625 µM", "setting": "Plasmodium falciparum, M-833 0.625 uM, Pop D-C6 replicate 1", "result": 0.301, "unit": "%"}, {"measurement": "inhibition at 0.625 µM", "setting": "Plasmodium falciparum, M-833 0.625 uM, Pop D-C6 replicate 3", "result": 2.37, "unit": "%"}, {"measurement": "inhibition at 1.25 µM", "setting": "Plasmodium falciparum, M-833 1.25 uM, Pop D-C6 replicate 1", "result": 11.8, "unit": "%"}, {"measurement": "inhibition at 1.25 µM", "setting": "Plasmodium falciparum, M-833 1.25 uM, Pop D-C6 replicate 3", "result": 10.1, "unit": "%"}, {"measurement": "inhibition at 2.5 µM", "setting": "Plasmodium falciparum, M-833 2.5 uM, Pop D-C6 replicate 1", "result": 31.2, "unit": "%"}, {"measurement": "inhibition at 2.5 µM", "setting": "Plasmodium falciparum, M-833 2.5 uM, Pop D-C6 replicate 3", "result": 30.5, "unit": "%"}, {"measurement": "inhibition at 5 µM", "setting": "Plasmodium falciparum, M-833 5 uM, Pop D-C6 replicate 1", "result": 58.4, "unit": "%"}, {"measurement": "inhibition at 5 µM", "setting": "Plasmodium falciparum, M-833 5 uM, Pop D-C6 replicate 3", "result": 59.7, "unit": "%"}, {"measurement": "inhibition at 10 µM", "setting": "Plasmodium falciparum, M-833 10 uM, Pop D-C6 replicate 1", "result": 77.2, "unit": "%"}, {"measurement": "inhibition at 10 µM", "setting": "Plasmodium falciparum, M-833 10 uM, Pop D-C6 replicate 3", "result": 67.7, "unit": "%"}, {"measurement": "inhibition at 0.0390625 µM", "setting": "Plasmodium falciparum, Pop D-C6 replicate 1, M-833 0.0390625 uM", "result": -0.105, "unit": "%"}, {"measurement": "inhibition at 0.078125 µM", "setting": "Plasmodium falciparum, Pop D-C6 replicate 1, M-833 0.078125 uM", "result": -0.157, "unit": "%"}, {"measurement": "inhibition at 0.15625 µM", "setting": "Plasmodium falciparum, Pop D-C6 replicate 1, M-833 0.15625 uM", "result": 1.36, "unit": "%"}, {"measurement": "inhibition at 0.3125 µM", "setting": "Plasmodium falciparum, Pop D-C6 replicate 1, M-833 0.3125 uM", "result": 4.07, "unit": "%"}, {"measurement": "inhibition at 0.625 µM", "setting": "Plasmodium falciparum, Pop D-C6 replicate 1, M-833 0.625 uM", "result": 7.36, "unit": "%"}, {"measurement": "inhibition at 1.25 µM", "setting": "Plasmodium falciparum, Pop D-C6 replicate 1, M-833 1.25 uM", "result": 9.35, "unit": "%"}, {"measurement": "inhibition at 2.5 µM", "setting": "Plasmodium falciparum, Pop D-C6 replicate 1, M-833 2.5 uM", "result": 19.4, "unit": "%"}, {"measurement": "inhibition at 5 µM", "setting": "Plasmodium falciparum, Pop D-C6 replicate 1, M-833 5 uM", "result": 34.9, "unit": "%"}, {"measurement": "inhibition at 10 µM", "setting": "Plasmodium falciparum, Pop D-C6 replicate 1, M-833 10 uM", "result": 62, "unit": "%"}, {"measurement": "EC50", "setting": "Plasmodium falciparum, read-out: EC50 (95% confidence interval)", "result": 4.19, "unit": "µM"}, {"measurement": "Normalised to DMSO", "setting": "Pop D-C6 replicate 1, M-833 0.0390625 uM", "result": 100.105}, {"measurement": "Normalised to DMSO", "setting": "Pop D-C6 replicate 1, M-833 0.078125 uM", "result": 100.157}, {"measurement": "Normalised to DMSO", "setting": "Pop D-C6 replicate 1, M-833 0.15625 uM", "result": 98.6386}, {"measurement": "Normalised to DMSO", "setting": "Pop D-C6 replicate 1, M-833 0.3125 uM", "result": 95.9333}, {"measurement": "Normalised to DMSO", "setting": "Pop D-C6 replicate 1, M-833 0.625 uM", "result": 92.6433}, {"measurement": "Normalised to DMSO", "setting": "Pop D-C6 replicate 1, M-833 1.25 uM", "result": 90.6536}, {"measurement": "Normalised to DMSO", "setting": "Pop D-C6 replicate 1, M-833 2.5 uM", "result": 80.5829}, {"measurement": "Normalised to DMSO", "setting": "Pop D-C6 replicate 1, M-833 5 uM", "result": 65.0842}, {"measurement": "Normalised to DMSO", "setting": "Pop D-C6 replicate 1, M-833 10 uM", "result": 37.9963}]}]}
